Source: patent US20140243273A1, “METHODS FOR TREATING INFLAMMATORY DISEASES AND PHARMACEUTICAL COMBINATIONS USEFUL THEREFOR” (Vertex Pharmaceuticals Incorporated, priority 2011, published 2014)

Legend:
JAK2 = JAK2 (Homo sapiens, UniProt O60674); assay: JAK2 Inhibition Assay; format: biochemical; details: 5 nM JAK-2 enzyme, 15 μM poly(Glu)4Tyr, 12 μM ATP; kind of constant not given
Description: [The procedure below names another target; the source says it served here with some conditions changed.] (§1) Compounds were screened for their ability to inhibit JAK3 using the assay shown below. Reactions were carried out in a kinase buffer containing 100 mM HEPES (pH 7.4), 1 mM DTT, 10 mM MgCl2, 25 mM NaCl, and 0.01% BSA. Substrate concentrations in the assay were 5 μM ATP (200 uCi/μmole ATP) and 1 μM poly(Glu)4Tyr. Reactions were carried out at 25° C. and 1 nM JAK3.
(§2) To each well of a 96 well polycarbonate plate was added 1.5 μl of a compound of Formula I along with 50 μl of kinase buffer containing 2 μM poly(Glu)4Tyr and 10 μM ATP. This was then mixed and 50 μl of kinase buffer containing 2 nM JAK3 enzyme was added to start the reaction. After 15 minutes at room temperature (25° C.), the reaction was stopped with 50 μl of 20% trichloroacetic acid (TCA) that also contained 0.4 mM ATP. The entire contents of each well were then transferred to a 96 well glass fiber filter plate using a TomTek Cell Harvester. After washing, 60 μl of scintillation fluid was added and ^33P incorporation detected on a Perkin Elmer TopCount.

JAK3 = biological target: T1, JAK3 (Homo sapiens, UniProt P52333); assay: JAK3 Inhibition Assay; format: biochemical; details: 1 nM JAK3, 1 μM poly(Glu)4Tyr, 5 μM ATP, 25° C.; kind of constant not given
T1 sequence (P52333 1-1124): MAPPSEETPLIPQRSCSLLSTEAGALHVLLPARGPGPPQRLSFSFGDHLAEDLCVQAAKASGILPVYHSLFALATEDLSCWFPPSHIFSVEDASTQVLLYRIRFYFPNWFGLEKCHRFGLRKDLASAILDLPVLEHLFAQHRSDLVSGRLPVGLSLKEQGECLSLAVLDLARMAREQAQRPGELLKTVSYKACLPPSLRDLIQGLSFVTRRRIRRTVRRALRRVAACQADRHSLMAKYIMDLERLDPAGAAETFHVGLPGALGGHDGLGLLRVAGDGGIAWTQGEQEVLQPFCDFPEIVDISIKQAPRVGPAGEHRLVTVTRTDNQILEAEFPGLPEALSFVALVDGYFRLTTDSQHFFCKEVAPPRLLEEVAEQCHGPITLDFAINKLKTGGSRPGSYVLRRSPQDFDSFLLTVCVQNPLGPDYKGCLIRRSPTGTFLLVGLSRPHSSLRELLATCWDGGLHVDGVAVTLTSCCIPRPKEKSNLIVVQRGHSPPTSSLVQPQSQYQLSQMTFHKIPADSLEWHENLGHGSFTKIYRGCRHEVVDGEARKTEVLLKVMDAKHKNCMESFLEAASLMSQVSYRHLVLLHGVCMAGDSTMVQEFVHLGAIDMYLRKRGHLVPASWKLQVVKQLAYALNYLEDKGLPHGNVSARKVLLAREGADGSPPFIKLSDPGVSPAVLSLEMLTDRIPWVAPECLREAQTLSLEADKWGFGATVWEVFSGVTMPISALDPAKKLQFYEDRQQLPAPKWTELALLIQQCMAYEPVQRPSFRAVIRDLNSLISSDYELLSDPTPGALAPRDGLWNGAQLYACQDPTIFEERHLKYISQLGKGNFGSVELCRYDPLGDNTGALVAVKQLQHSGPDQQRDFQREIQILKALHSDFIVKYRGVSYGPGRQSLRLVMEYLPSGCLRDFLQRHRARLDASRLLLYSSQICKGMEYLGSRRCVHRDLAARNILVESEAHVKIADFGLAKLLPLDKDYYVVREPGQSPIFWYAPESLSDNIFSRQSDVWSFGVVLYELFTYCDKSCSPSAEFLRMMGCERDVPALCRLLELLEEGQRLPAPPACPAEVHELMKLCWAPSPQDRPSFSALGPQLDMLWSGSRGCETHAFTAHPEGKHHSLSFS
Description: as §1, §2

mouse colitis model = assay: Mouse model for Crohn's disease and ulcerative colitis (CD4+CD25- T cell transfer into SCID mice); format: in vivo; details: compound no. 9 (methane sulfonic acid), 50, 100, 150 mpk b.i.d., oral gavage, days 19-33, SCID mice
Description: Female SCID mice received grafts of 2.5×10e5 CD4+CD25-T cells from naïve BALB/c wild type donors (all Charles River Laboratories) to induce colitis. On day 14, after cell transfer, the recipient SCID mice were tested for graft acceptance and mice without T cells removed from the study. On days 19-33, the recipient SCID mice were administered compound no. 9 (methane sulfonic acid) mixed with vehicle (1% HPMC-c5, 50 mM Na citrate, pH 3.0) in doses of 50, 100, and 150 mpk b.i.d. Control mice were administered either saline, vehicle (1% HPMC-c5, 50 mM Na citrate, pH 3.0), or 1 mpk dexamethasone, b.i.d. Doses were administered via oral gavage. On day 35, the mice were sacrificed.

Chain of JAK2 (O60674 whole entry, species assumed): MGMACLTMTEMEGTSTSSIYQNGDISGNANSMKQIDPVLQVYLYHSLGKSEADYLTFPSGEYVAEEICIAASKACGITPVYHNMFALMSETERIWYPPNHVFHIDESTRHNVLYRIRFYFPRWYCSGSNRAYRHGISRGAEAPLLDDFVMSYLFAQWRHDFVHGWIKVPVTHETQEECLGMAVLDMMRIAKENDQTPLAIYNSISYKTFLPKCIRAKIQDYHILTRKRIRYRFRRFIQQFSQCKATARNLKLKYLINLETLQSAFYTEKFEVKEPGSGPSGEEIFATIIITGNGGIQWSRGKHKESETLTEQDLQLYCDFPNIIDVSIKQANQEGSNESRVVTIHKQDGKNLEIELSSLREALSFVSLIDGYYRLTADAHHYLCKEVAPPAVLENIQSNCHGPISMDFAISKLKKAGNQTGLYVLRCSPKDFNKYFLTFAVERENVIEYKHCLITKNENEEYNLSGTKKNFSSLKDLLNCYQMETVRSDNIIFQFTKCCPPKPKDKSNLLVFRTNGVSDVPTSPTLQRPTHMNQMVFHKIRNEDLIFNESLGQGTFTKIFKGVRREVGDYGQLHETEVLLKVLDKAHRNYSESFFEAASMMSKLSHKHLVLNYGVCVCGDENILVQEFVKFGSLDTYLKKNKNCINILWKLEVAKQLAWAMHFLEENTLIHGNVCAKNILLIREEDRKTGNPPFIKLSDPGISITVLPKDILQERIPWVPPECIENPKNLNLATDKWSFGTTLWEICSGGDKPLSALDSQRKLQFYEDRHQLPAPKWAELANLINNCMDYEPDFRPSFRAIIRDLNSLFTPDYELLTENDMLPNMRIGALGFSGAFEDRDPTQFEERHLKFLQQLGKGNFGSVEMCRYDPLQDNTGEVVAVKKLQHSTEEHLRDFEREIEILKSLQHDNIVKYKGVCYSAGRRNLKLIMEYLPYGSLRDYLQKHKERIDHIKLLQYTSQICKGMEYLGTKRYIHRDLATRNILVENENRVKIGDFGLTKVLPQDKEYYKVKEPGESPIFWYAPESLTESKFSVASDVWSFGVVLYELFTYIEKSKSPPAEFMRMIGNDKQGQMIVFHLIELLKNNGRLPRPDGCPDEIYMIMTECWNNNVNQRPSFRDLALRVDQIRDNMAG

JAK2 (μM), inhibition data (JAK2)	JAK3 (μM), inhibition data (JAK3)	Compound	colon histology (mouse colitis model)	colon pathology (mouse colitis model)	frequency of splenic CD4+ T cells (mouse colitis model)	inflammatory cytokine production (mouse colitis model; colon tissue)
0.0007 µM	0.001 µM	CC(C)[C@](C)(Nc1ccnc(-c2c[nH]c3ncc(Cl)cc23)n1)C(=O)NCC(F)(F)F [compound 18]	–	–	–	–
0.001 µM	0.002 µM	CC[C@](C)(Nc1nc(-c2c[nH]c3ncc(Cl)cc23)ncc1F)C(=O)NCC(F)(F)F [compound 15]	–	–	–	–
0.0042 µM	0.0024 µM	CC(C)[C@](C)(Nc1ccnc(-c2c[nH]c3ncccc23)n1)C(=O)NCC(F)(F)F [compound 5]	–	–	–	–
0.046 µM	0.0045 µM	CC(C)(Nc1ncnc(-c2c[nH]c3ncccc23)n1)C(=O)NCC(F)(F)F [compound 6]	–	–	–	–
0.028 µM	0.0042 µM	CC[C@](C)(Nc1nc(-c2c[nH]c3ncccc23)ncc1F)C(=O)NCC(F)(F)F [compound 3]	–	–	–	–
0.037 µM	0.006 µM	CC[C@@](C)(Nc1nc(-c2c[nH]c3ncc(Cl)cc23)ncc1F)C(=O)NCC(F)(F)F [compound 12]	–	–	–	–
0.015 µM	0.003 µM	CC[C@@](C)(Nc1ccnc(-c2c[nH]c3ncccc23)n1)C(=O)NCC(F)(F)F [compound 1]	–	–	–	–
0.028 µM	0.0032 µM	CC(C)(Nc1ccnc(-c2c[nH]c3ncccc23)n1)C(=O)NCC(F)(F)F [compound 2]	–	–	–	–
0.01 µM	0.002 µM	CC[C@@](C)(Nc1ccnc(-c2c[nH]c3ncc(Cl)cc23)n1)C(=O)NCC(F)(F)F [compound 16]	–	–	–	–
0.091 µM	0.0056 µM	CC(C)(Nc1nc(-c2c[nH]c3ncccc23)ncc1F)C(=O)NCC(F)(F)F [compound 4]	–	–	–	–
0.056 µM	0.018 µM	CCN(C)C(=O)[C@](C)(CC)Nc1ccnc(-c2c[nH]c3ncccc23)n1 [compound 7]	–	–	–	–
0.001 µM	0.002 µM	CC(C)[C@](C)(Nc1nc(-c2c[nH]c3ncc(Cl)cc23)ncc1F)C(=O)NCC(F)(F)F [compound 10]	–	–	–	–
0.003 µM	0.001 µM	CC(C)(Nc1ncnc(-c2c[nH]c3ncc(Cl)cc23)n1)C(=O)NCC(F)(F)F [compound 13]	–	–	–	–
0.001 µM	0.004 µM	CC(C)(Nc1nc(-c2c[nH]c3ncc(Cl)cc23)ncc1F)C(=O)NCC(F)(F)F [compound 19]	–	–	–	–
0.002 µM	0.003 µM	CC[C@](C)(Nc1ccnc(-c2c[nH]c3ncc(Cl)cc23)n1)C(=O)NCC(F)(F)F [compound 14]	–	–	–	–
0.055 µM	0.006 µM	CC(C)[C@@](C)(Nc1nc(-c2c[nH]c3ncc(Cl)cc23)ncc1F)C(=O)NCC(F)(F)F [compound 11]	–	–	–	–
0.083 µM	0.019 µM	CCNC(=O)C(C)(C)Nc1ncnc(-c2c[nH]c3ncccc23)n1 [compound 8]	–	–	–	–
0.001 µM	0.001 µM	CC(C)(Nc1ccnc(-c2c[nH]c3ncc(Cl)cc23)n1)C(=O)NCC(F)(F)F [Compound No. 9]	Improvements	improved	significant reduction	improved
0.003 µM	0.001 µM	CCNC(=O)C(C)(C)Nc1ccnc(-c2c[nH]c3ncc(Cl)cc23)n1 [compound 17]	–	–	–	–
